The results in this text go back to ChEMBL document CHEMBL3227963, “Synthesis and antitumor activity of 4'-O-methyldaunorubicin, 4'-O-methyladriamycin, and their 4'-epi analogues” (J Med Chem, 1979).

The subject of series [1] is P388. Description: Antitumor activity against mouse P388 cells allografted in ip dosed mouse assessed as optimal dose. The format is functional.
Series [2] deals with P388. Description: Antitumor activity against mouse P388 cells allografted in mouse assessed as average survival time at 2.9 mg/kg, ip relative to untreated control. The format is functional. Conditions: route intraperitoneal.
Series [3] deals with Mus musculus. Kind of series: Toxicity in mouse allografted with mouse P388 cells at 2.9 mg/kg, ip. Format: organism-based. The arrangement: dose 2.9 mg/kg, route intraperitoneal. The following applies: in vivo.
In series [4] the test system is Mus musculus. Description: Toxicity in mouse allografted with mouse P388 cells at 6.6 mg/kg, ip. Format: organism-based. Further details: dose 6.6 mg/kg, route intraperitoneal. The following applies: in vivo.
In series [5] the test system is L1210. Description: Antitumor activity against mouse L1210 cells allografted in mouse assessed as average survival time at 6.6 mg/kg, ip relative to untreated control. The format is functional. The following applies: route intraperitoneal.
The test system of series [6] is L1210. Kind of series: Antitumor activity against mouse L1210 cells allografted in mouse assessed as average survival time at 4.4 mg/kg, ip relative to untreated control. The format is functional. The following applies: route intraperitoneal.
Series [7] deals with L1210. Kind of series: Antitumor activity against mouse L1210 cells allografted in mouse assessed as average survival time at 10 mg/kg, ip relative to untreated control. The format is functional. The following applies: route intraperitoneal.
In series [8] the test system is P388. Kind of series: Antitumor activity against mouse P388 cells allografted in mouse assessed as average survival time at 6.6 mg/kg, ip relative to untreated control. Format: functional. The following applies: route intraperitoneal.
The subject of series [9] is Mus musculus. Kind of series: Toxicity in mouse allografted with mouse P388 cells at 20 mg/kg, ip. Format: organism-based. Further details: dose 20 mg/kg, route intraperitoneal. Conditions: in vivo.
Series [10] relates to P388. Kind of series: Antitumor activity against mouse P388 cells allografted in mouse assessed as average survival time at 20 mg/kg, ip relative to untreated control. Format: functional. Conditions: route intraperitoneal.
Series [11] has as its system L1210. Description: Antitumor activity against mouse L1210 cells allografted in mouse assessed as average survival time at 15 mg/kg, ip relative to untreated control. Format: functional. The following applies: route intraperitoneal.
Series [12] deals with L1210. Description: Antitumor activity against mouse L1210 cells allografted in mouse assessed as average survival time at 22.5 mg/kg, ip relative to untreated control. Format: functional. The following applies: route intraperitoneal.
The subject of series [13] is P388. Description: Antitumor activity against mouse P388 cells allografted in mouse assessed as average survival time at 4.4 mg/kg, ip relative to untreated control. The format is functional. Conditions: route intraperitoneal.
Series [14] has as its system Mus musculus. Description: Toxicity in mouse allografted with mouse P388 cells at 4.4 mg/kg, ip. Format: organism-based. Further details: dose 4.4 mg/kg, route intraperitoneal. The following applies: in vivo.

Regarding `COc1cccc2c1C(=O)c1c(O)c3c(c(O)c1C2=O)C[C@@](O)(C(C)=O)C[C@@H]3O[C@H]1C[C@H](N)[C@H](OC)[C@H](C)O1`, the Optimal dose in the series on P388 [1] is 2.9 mg/kg. Also, the T/C in the series with P388 [2] turned out to be 156%. Also, the Activity result with Mus musculus [3] is listed as “Non-toxic”.

On to `COc1cccc2c1C(=O)c1c(O)c3c(c(O)c1C2=O)C[C@@](O)(C(=O)CO)C[C@@H]3O[C@H]1C[C@H](N)[C@H](OC)[C@H](C)O1`, for which, in the series on P388 [1], the Optimal dose turned out to be 6.6 mg/kg. For the same molecule, the Activity result in the series on Mus musculus [4] is “Non-toxic”. Besides, the T/C in the series with L1210 [5] is 231%; with L1210 [6], 287%; in the series with L1210 [7], 62%; with P388 [8], 270%.

As for `COc1cccc2c1C(=O)c1c(O)c3c(c(O)c1C2=O)C[C@@](O)(C(C)=O)C[C@@H]3O[C@H]1C[C@H](N)[C@@H](OC)[C@H](C)O1`, the Optimal dose in the series with P388 [1] stood at 20 mg/kg. In the series with Mus musculus [9], the Activity entry is reported as “Non-toxic”. For the same molecule, in the series on P388 [10], the T/C came to 174%.

As for `COc1cccc2c1C(=O)c1c(O)c3c(c(O)c1C2=O)C[C@@](O)(C(=O)CO)C[C@@H]3O[C@H]1C[C@H](N)[C@@H](OC)[C@H](C)O1`, the T/C in the series with L1210 [5] was found to be 169%; in the series on L1210 [7], 187%; in the series on L1210 [11] it was 181%; in the series on L1210 [12], 87%.

Regarding `COc1cccc2c1C(=O)c1c(O)c3c(c(O)c1C2=O)C[C@@](O)(C(C)=O)C[C@@H]3O[C@H]1C[C@H](N)[C@H](O)[C@H](C)O1` [DAUNORUBICIN], in the series on P388 [1], the Optimal dose turned out to be 2.9 mg/kg. Moreover, in the series with P388 [2], the T/C amounted to 169%. In the series with Mus musculus [3], the Activity result is reported as “Non-toxic”.

On to `COc1cccc2c1C(=O)c1c(O)c3c(c(O)c1C2=O)C[C@@](O)(C(=O)CO)C[C@@H]3O[C@H]1C[C@H](N)[C@H](O)[C@H](C)O1` [DOXORUBICIN], for which, in the series with P388 [1], the Optimal dose came to 4.4 mg/kg. The T/C is listed as 175% in the series with L1210 [5], 254% in the series with P388 [13], 169% with L1210 [6] and 187% with L1210 [7]. Moreover, in the series with Mus musculus [14], the Activity entry was “Non-toxic”.
